9 compounds from patent US12227539B2, “Mogroside compounds and uses thereof” (Firmenich SA, priority 2019, dated 2025) can be followed below.

A short description of test [1]: Tasting of a sample of the purified compound (taste perceived, sweetness relative to sucrose). The conditions noted are these: for sweetness relative to sucrose: approximate. From the text: The sweetness intensity perceived was weaker than the sweetness intensity perceived with mogroside V. However, the perception of licorice and lingering profile of isomogroside IVe was weaker than that of mogroside V (see table on following page).

A short description of test [2]: Sensory profile scores (Sweet, Licorice, Lingering) compared with mogroside V.
Where [3] appears, read: tasted at a concentration of 250 ppm.
[4] abbreviates: tasted at 250 ppm in a water base.

As for `CC(C)(O)[C@@H](CC[C@](C)(O)[C@H]1CC[C@@]2(C)[C@@H]3CC=C4[C@@H](CC[C@H](O[C@@H]5O[C@H](CO[C@@H]6O[C@H](CO)[C@@H](O)[C@H](O)[C@H]6O)[C@@H](O)[C@H](O)[C@H]5O[C@@H]5O[C@H](CO)[C@@H](O)[C@H](O)[C@H]5O)C4(C)C)[C@]3(C)C(=O)C[C@]12C)O[C@@H]1O[C@H](CO[C@@H]2O[C@H](CO)[C@@H](O)[C@H](O)[C@H]2O)[C@@H](O)[C@H](O)[C@H]1O` [Compound 9a, (1S,4R,9beta,24R)-24-{[6-O-(beta-D-glucopyranosyl)-beta-D-glucopyranosyl]oxy}-20,25-dihydroxy-9,10,14-trimethyl-11-oxo-4,9-cyclo-9,10-secocholest-5-en-1-yl beta-D-glucopyranosyl-(1→2)-[beta-D-glucopyranosyl-(1→6)]-beta-D-glucopyranoside], in test [1] (setting [3]), the taste perceived result is reported as “No taste”.
With `C[C@H](CC[C@@H](O[C@@H]1O[C@H](CO[C@@H]2O[C@H](CO)[C@@H](O)[C@H](O)[C@H]2O)[C@@H](O)[C@H](O)[C@H]1O[C@@H]1O[C@H](CO)[C@@H](O[C@@H]2O[C@H](CO)[C@@H](O)[C@H](O)[C@H]2O)[C@H](O)[C@H]1O)C(C)(C)O)[C@H]1CC[C@@]2(C)[C@@H]3CC=C4[C@@H](CC[C@H](O[C@@H]5O[C@H](CO[C@@H]6O[C@H](CO)[C@@H](O)[C@H](O)[C@H]6O)[C@@H](O)[C@H](O)[C@H]5O)C4(C)C)[C@]3(C)[C@H](O)C[C@]12C` [Compound 12a, (1S,4R,9beta,11alpha,24R)-1-{[6-O-(beta-D-glucopyranosyl)-beta-D-glucopyranosyl]oxy}-11,25-dihydroxy-9,10,14-trimethyl-4,9-cyclo-9,10-secocholest-5-en-24-yl beta-D-glucopyranosyl-(1→6)-[beta-D-glucopyranosyl-(1→4)-beta-D-glucopyranosyl-(1→2)]-beta-D-glucopyranoside], the “sweetness relative to sucrose” value in test [1] (setting [4]) is reported as 50-100 times sweeter than sucrose. The taste perceived result in test [1] (setting [3]) is given as “moderate sweet taste”. Moreover, the “sweetness intensity perceived compared with mogroside V” value in test [2] (250 ppm in a water base) is listed as “weaker”. In test [2] (Dosage 250 ppm), this compound came in with a Licorice of 3.1, a Lingering of 3.0 and a Sweet of 3.4.
As to `C[C@H](CC[C@@H](O[C@@H]1O[C@H](CO[C@@H]2O[C@H](CO[C@@H]3O[C@H](CO)[C@@H](O)[C@H](O)[C@H]3O)[C@@H](O)[C@H](O)[C@H]2O)[C@@H](O)[C@H](O)[C@H]1O[C@@H]1O[C@H](CO)[C@@H](O)[C@H](O)[C@H]1O)C(C)(C)O)[C@H]1CC[C@@]2(C)[C@@H]3CC=C4[C@@H](CC[C@H](O[C@@H]5O[C@H](CO[C@@H]6O[C@H](CO)[C@@H](O)[C@H](O)[C@H]6O)[C@@H](O)[C@H](O)[C@H]5O)C4(C)C)[C@]3(C)[C@H](O)C[C@]12C` [Compound 13a, (1S,4R,9beta,11alpha,24R)-1-{[6-O-(beta-D-glucopyranosyl)-beta-D-glucopyranosyl]oxy}-11,25-dihydroxy-9,10,14-trimethyl-4,9-cyclo-9,10-secocholest-5-en-24-yl beta-D-glucopyranosyl-(1→2)-[beta-D-glucopyranosyl-(1→6)-beta-D-glucopyranosyl-(1→6)]-beta-D-glucopyranoside], in test [1] (setting [4]), the “sweetness relative to sucrose” value is given as 100-150 times sweeter than sucrose. Moreover, the taste perceived result in test [1] (setting [3]) is listed as “moderate sweet taste”. For the same compound, the “sensory profile compared with mogroside V” value in test [2] (250 ppm in a water base) is “similar”. In addition, in test [2] (Dosage 250 ppm), the Licorice is on record as 4.4, the Lingering was 4.2 and the Sweet amounted to 4.6.
Take `C[C@H](CC[C@@H](O[C@@H]1O[C@H](CO)[C@@H](O)[C@H](O)[C@H]1O[C@@H]1O[C@H](CO)[C@@H](O)[C@H](O)[C@H]1O)C(C)(C)O)[C@H]1CC[C@@]2(C)[C@@H]3CC=C4[C@@H](CC[C@H](O[C@@H]5O[C@H](CO[C@@H]6O[C@H](CO)[C@@H](O)[C@H](O)[C@H]6O)[C@@H](O)[C@H](O)[C@H]5O)C4(C)C)[C@]3(C)CC[C@]12C` [Compound 15a, (1S,4S,9beta,24R)-1-{[6-O-(beta-D-glucopyranosyl)-beta-D-glucopyranosyl]oxy}-25-hydroxy-9,10,14-trimethyl-4,9-cyclo-9,10-secocholest-5-en-24-yl 2-O-beta-D-glucopyranosyl-beta-D-glucopyranoside]: the “sweetness relative to sucrose” value in test [1] (tasted at 500 ppm in a water base) is 150-300 times sweeter than sucrose. Further, the taste perceived entry in test [1] (tasted at a concentration of 500 ppm in a water base) is recorded as “strong sweet taste”. In addition, the “sensory profile compared with mogroside V” value in test [2] (500 ppm in a water base) is recorded as “similar”. In test [2] (Dosage 500 ppm), this compound gave a Licorice of 6.8, a Lingering of 6.3 and a Sweet of 7.0.
Turning to `C[C@H](CC[C@@H](O[C@@H]1O[C@H](CO[C@@H]2O[C@H](CO)[C@@H](O)[C@H](O)[C@H]2O)[C@@H](O)[C@H](O)[C@H]1O[C@@H]1O[C@H](CO)[C@@H](O)[C@H](O)[C@H]1O)C(C)(C)O)[C@H]1CC[C@@]2(C)[C@@H]3CC=C4[C@@H](CC[C@H](O[C@@H]5O[C@H](CO[C@@H]6O[C@H](CO)[C@@H](O)[C@H](O)[C@H]6O)[C@@H](O)[C@H](O)[C@H]5O)C4(C)C)[C@]3(C)[C@H](O)C[C@]12C` [Mogroside V, reference compound], in test [2] (Dosage 250 ppm), the Licorice is 3.8, the Lingering came out at 4.9 and the Sweet worked out at 6.0. In test [2] (Dosage 500 ppm), this compound showed a Licorice of 4.2, a Lingering of 5.2 and a Sweet of 7.2.
Take “(1S,4R,9beta,11alpha,24R)-24-{[6-O-(beta-D-glucopyranosyl)-beta-D-glucopyranosyl]oxy}-11,22,25-trihydroxy-9,10,14-trimethyl-4,9-cyclo-9,10-secocholest-5-en-1-yl 4-O-beta-D-glucopyranosyl-beta-D-glucopyranoside [Compound 3a]”: the taste perceived entry in test [1] (setting [3]) is reported as “No taste”.
“(1S,4R,9beta,24R)-1-{[6-O-(beta-D-glucopyranosyl)-beta-D-glucopyranosyl]oxy}-25-hydroxy-9-(hydroxymethyl)-10,14-dimethyl-11-oxo-4,9-cyclo-9,10-secocholest-5-en-24-yl beta-D-glucopyranosyl-(1→2)-[beta-D-glucopyranosyl-(1→6)]-beta-D-glucopyranoside [Compound 5a]”: the taste perceived result in test [1] (setting [3]) is recorded as “No taste”.
In the case of “[(1S,4R,9beta,10R,24R)-24-{[beta-D-glucopyranosyl-(1→6)-beta-D-glucopyranosyl-(1→6)-beta-D-glucopyranosyl]oxy}-1,25-dihydroxy-9,14-dimethyl-11-oxo-4,9-cyclo-9,10-secocholest-5-en-10-yl]methyl beta-D-glucopyranosyl-(1→6)-[beta-D-glucopyranosyl-(1→4)-beta-D-glucopyranosyl-(1→2)]-beta-D-glucopyranoside [Compound 10a]”, the taste perceived result in test [1] (setting [3]) was “No taste”.
Take isomogroside IVe: the “perception of licorice and lingering profile compared with mogroside V” value in test [2] (250 ppm in a water base) was “weaker”.
